# Measurements from ChEMBL document CHEMBL5120971, “Network Pharmacology Research and Dual-omic Analyses Reveal the Molecular Mechanism of Natural Product Nodosin Inhibiting Muscle-Invasive Bladder Cancer in Vitro and in Vivo” (J Nat Prod, 2022).
# Activity calls are given as the source filed them. The calls are words filed in the database; no cut-off is given here.
# What was measured:
# T-24 [1] = test: Induction of morphological changes in human T24 cells assessed as reduction in cell adherence at 4 to 12 uM measured after 48 hrs by microscopy; format: functional, cell-based; details: dose 4-12 µM
# T-24 [2] = test: Induction of morphological changes in human T24 cells assessed as cell shrinkage at 4 to 12 uM measured after 48 hrs by microscopy; format: functional, cell-based; details: dose 4-12 µM
# T-24 [3] = test: Effect on PDCD2L expression in human T24 cells at 6 uM measured after 24 to 30 hrs by proteomic analysis; format: functional, cell-based; details: time 24-30 hrs
# T-24 [4] = test: Effect on POLD3 expression in human T24 cells at 6 uM measured after 24 to 30 hrs by proteomic analysis; format: functional, cell-based; details: time 24-30 hrs
# T-24 [5] = test: Induction of apoptosis in human T24 cells assessed as early apoptotic cells at 4 uM measured after 48 hrs by Annexin V-FITC/propidium iodide staining based flow cytometry (reference value: 1.2%); format: functional
# T-24 [6] = test: Induction of apoptosis in human T24 cells assessed as necrotic cells at 4 uM measured after 48 hrs by Annexin V-FITC/propidium iodide staining based flow cytometry (reference value: 0.57%); format: functional
# T-24 [7] = test: Induction of apoptosis in human T24 cells assessed as effect on TRIAP1 expression at 6 uM measured after 24 to 30 hrs by proteomic analysis; format: functional, cell-based; details: time 24-30 hrs
# T-24 [8] = test: Induction of autophagy in human T24 cells assessed as up regulation of SQSTM1 expression at 6 uM measured after 24 to 30 hrs by proteomic analysis; format: functional, cell-based; details: time 24-30 hrs
# T-24 [9] = test: Induction of autophagy in human T24 cells assessed as effect on FLCN gene expression at 6 uM measured after 12 to 18 hrs by transcriptome analysis; format: functional, cell-based; details: time 12-18 hrs
# T-24 [10] = test: Induction of autophagy in human T24 cells assessed as effect on LGALS8 gene expression at 6 uM measured after 12 to 18 hrs by transcriptome analysis; format: functional, cell-based; details: time 12-18 hrs
# T-24 [11] = test: Induction of autophagy in human T24 cells assessed as effect on CISD2 gene expression at 6 uM measured after 12 to 18 hrs by transcriptome analysis; format: functional, cell-based; details: time 12-18 hrs
# T-24 [12] = test: Induction of cell membrane disruption in human T24 cells at 4 to 20 uM measured after 24 hrs by Dio/Hoechst 33342 staining based fluorescence assay; details: dose 4-20 µM
# T-24 [13] = test: Up regulation of FTL gene expression in human T24 cells at 6 uM measured after 12 to 18 hrs by transcriptome analysis; format: functional, cell-based; details: time 12-18 hrs
# T-24 [14] = test: Up regulation of FTL expression in human T24 cells at 6 uM measured after 24 to 30 hrs by proteomic analysis; format: functional, cell-based; details: time 24-30 hrs
# T-24 [15] = test: Antitumor activity against human T24 cells xenografted in BALB/c mouse assessed as increase in HMOX1expression at 2 mg/kg, ip administered at 2 days interval by immunohistochemical analysis; format: functional, organism-based
smiles,measurement,setting,value
C=C1C(=O)[C@]23C[C@H]1C[C@@H](O)[C@H]2[C@@]12CO[C@@H](O)[C@@H]1C(C)(C)CC[C@@H]2OC3=O [NODOSIN],Activity,T-24 [1],Active
same,Activity,T-24 [2],Active
same,Activity,T-24 [3],Active
same,Activity,T-24 [4],Active
same,Activity,T-24 [5],2.38%
same,Activity,T-24 [6],0.2%
same,Activity,T-24 [7],Active
same,Activity,T-24 [8],Active
same,Activity,T-24 [9],Active
same,Activity,T-24 [10],Active
same,Activity,T-24 [11],Active
same,Activity,T-24 [12],Active
same,Activity,T-24 [13],Active
same,Activity,T-24 [14],Active
same,Activity,T-24 [15],Active
